In patent US7629332B2, “Nitrophenyl mustard and nitrophenylaziridine alcohols and their corresponding phosphates and their use as targeted cytotoxic agents” (Auckland Uniservices Limited, priority 2003, dated 2009):

Experiments:
WiDr (NTR+ve) = experiment: Cell proliferation (sulphorhodamine B) IC50, NTR-transfected WiDr human colon cells; format: cell-based; conditions: for WiDr WT:NTR IC50 Ratio: 4 h, sensitivity ratio for NTR expression; for IC50: WiDr, 4 h drug exposure, growth 5 further days
A549 (P450R+ve) = experiment: Cell proliferation (sulphorhodamine B) IC50, P450R-transfected A549 human lung cells, anoxia vs 20% O2; format: cell-based; conditions: for A549 (P450R+ve) 20% O2/anoxia IC50 Ratio: 4 h, sensitivity ratio for hypoxia; for IC50: A549, 4 h drug exposure under 0% oxygen
[1] = tested on: SiHa human tumour xenografts; experiment: SiHa xenograft excision / clonogenic assay, with or without 15 Gy radiation; format: in vivo; conditions: for Activity against hypoxic cells: 20% of respective MTDs, after radiation
in vivo = conditions: CD-1 nude, mouse, ip

Row | Compound | melting point [°C] | WiDr WT:NTR IC50 Ratio (WiDr (NTR+ve)) | IC50 (WiDr (NTR+ve)) [µM] | A549 (P450R+ve) 20% O2/anoxia IC50 Ratio (A549 (P450R+ve)) | IC50 (A549 (P450R+ve)) [µM] | Log kill, cmpd only, Mean ± sem ([1]; 75% of MTD, single i.p. dose, no radiation, relative to vehicle controls, excision 18 h) | MTD (in vivo) [µmol/kg] | Activity against hypoxic cells [1] | Log kill, cmpd only, Mean ± sem ([1]; in vivo, ip)
1 | O=C(NCCCOP(=O)(O)O)c1cc(N(CCCl)CCCl)c([N+](=O)[O-])cc1[N+](=O)[O-] | 195 to 200 | – | – | – | – | – | – | – | –
2 | CC(Br)CN(CC(C)Br)c1c(C(=O)NCCOP(=O)(O)O)cc([N+](=O)[O-])cc1[N+](=O)[O-] (stereo not shown) | 157 to 161 | – | – | – | – | – | – | – | –
3 | CS(=O)(=O)c1cc([N+](=O)[O-])c(C(=O)NCCO)cc1N(CCBr)CCBr [IIa-7s, 5-[Bis(2-Bromoethyl)Amino]-N-(2-hydroxyethyl)-4-(Methylsulfonyl)-2-Nitrobenzamide] | 126 to 127 | 35 | 9.3 | 109 | 2.1 | – | – | – | –
4 | O=C(NCCCCO)c1cc(N(CCBr)CCBr)c([N+](=O)[O-])cc1[N+](=O)[O-] [IIa-9, N-(4-Hydroxybutyl)-5-[Bis(2-Bromoethyl)Amino]-2,4-Dinitrobenzamide] | 123 to 124 | 58 | 6.4 | 9.4 | 22 | – | – | – | –
5 | O=C(NCCCCCCO)c1cc([N+](=O)[O-])cc([N+](=O)[O-])c1N1CC1 [IIb-1, 2-(Aziridin-1-yl)-N-(6-Hydroxyhexyl)-3,5-Dinitrobenzamide] | 189 to 192 | 2 | 61 | <1.3 | 384 | – | – | – | –
6 | O=C(NCCO)c1cc([N+](=O)[O-])cc([N+](=O)[O-])c1N(CCCl)CCCl [IIb-2, 2-[Bis(2-Chloroethyl)Amino]-N-(2-Hydroxyethyl)-3,5-Dinitrobenzamide] | 109 to 111 | 47 | 11.8 | 20 | 18 | – | – | – | –
7 | O=C(NCCCO)c1cc([N+](=O)[O-])cc([N+](=O)[O-])c1N(CCCl)CCCl [IIb-3, 2-[Bis(2-Chloroethyl)Amino]-N-(3-Hydroxypropyl)-3,5-Dinitrobenzamide] | 89 to 91 | 59 | 13.6 | 9 | 30 | – | – | – | –
8 | CC(Br)CN(CC(C)Br)c1c(C(=O)NCCO)cc([N+](=O)[O-])cc1[N+](=O)[O-] (stereo not shown) [IIb-7a, 2-[Bis(2-Bromopropyl)Amino]-N-(2-Hydroxyethyl)-3,5-Dinitrobenzamide] | 127 to 130 | 27 | 0.5 | 5.3 | 1 | – | – | – | –
9 | O=C(NCCCO)c1cc([N+](=O)[O-])cc([N+](=O)[O-])c1N(CCBr)CCBr [IIb-8, 2-[Bis(2-Bromoethyl)Amino]-N-(3-Hydroxypropyl)-3,5-Dinitrobenzamide] | 89 to 94 | 13 | 0.4 | 24 | 1.1 | – | – | – | –
10 | O=C(NCCO)c1cc([N+](=O)[O-])cc([N+](=O)[O-])c1N(CCI)CCI [IIb-14, 2-[Bis(2-Iodoethyl)Amino]-N-(2-Hydroxyethyl)-3,5-Dinitrobenzamide] | 129 to 131 | 12 | 0.8 | 27 | 1 | – | – | – | –
11 | O=C(NCCOP(=O)(O)O)c1cc([N+](=O)[O-])cc([N+](=O)[O-])c1N(CCI)CCI [Ib-14P, 2-[[2-[Bis(2-Iodoethyl)Amino]-3,5-Dinitrobenzoyl]Amino]Ethyl Dihydrogen Phosphate] | – | – | – | – | – | 0.92 ± 0.06 | 562 | – | –
12 | N[C@@H](Cc1ccc(N(CCCl)CCCl)cc1)C(=O)O [Melphalan, reference compound] | – | – | – | – | – | – | 42.2 | lacked activity | –
13 | Nc1n[n+]([O-])c2ccccc2[n+]1[O-] [Tirapazamine, reference compound] | – | – | – | – | – | – | 316 | lacked activity | −0.02 ± 0.01
